In US8563036B2, “Pharmaceutical compositions comprising Brivaracetam” (UCB Pharma, S.A., priority 2009, dated 2013):
Values after ≈ are worked out from the molar mass of the structure shown.

How the values were obtained:
[1] = tested on: rat hippocampal slices; conditions: background statement; cited from earlier work
[2] = tested on: fully amygdala-kindled rats; test: Fully amygdala-kindled rats; format: in vivo; conditions: for dose significantly reducing after-discharge duration: highest dose tested
[3] = tested on: rat hippocampal slices; test: Epileptiform responses in hippocampal slices (field potentials in CA3 area); format: cell-based, Sprague-Dawley rats; design: effect on rate of spontaneous field bursting: dose or concentration left out as unconfirmed; conditions: for effect on rate of spontaneous field bursting: HKLCF; for effect on epileptiform responses (evoked PS1 amplitude, repetitive PSs): HKLCF perfusion (K+ 7.5 mM; Ca2+ 0.5 mM), fimbrial stimulation
Method: The effect of brivaracetam on epileptiform responses induced by high-K+/low-Ca2+ concentrations or by bicuculline was examined in transverse hippocampal slices prepared from Sprague-Dawley rats according to previously reported standard procedures. The epileptiform responses were induced by passing from a normal perfusion of artificial cerebrospinal fluid (ACSF) (K+3 mM; Ca2+2.4 mM) to either high-K+/low-Ca2+ fluid (HKLCF) (K+7.5 mM; Ca2+0.5 mM) or to […] bicuculline methiodide (BMI)-containing ACSF.
Extracellular field potentials (FPs) were recorded in the CA3 area of the slices with 2 M NaCl-filled glass microelectrodes. The evoked FPs were recorded at 10-min intervals in response to fimbrial stimulation with constant current rectangular pulses that elicit a single population spike (PS) of 50-75% of the maximal amplitude when the slice is in ACSF. In the HKLCF model, 2 min of spontaneous activity were also recorded, in the middle of each 10-min interval between the recordings of evoked responses.
Either brivaracetam or levetiracetam was added to the bathing fluid of the slices 20 min before shifting from ACSF to either HKLCF or […] BMI-containing ACSF, and was kept in the perfusion fluid throughout the experiment.

[4] = tested on: Genetically sound-sensitive male mice; test: Audiogenic seizures in mice; format: in vivo; conditions: audiogenic seizure-susceptible mice, i.p.
From the text: Audiogenic seizures in mice: Genetically sound-sensitive male mice (16-28 g; n=10 per group), responding with wild running, clonic and tonic convulsions to an acoustic stimulation, were used. Audiogenic seizures were induced by an acoustic stimulus (90 dB, 10-20 kHz) applied for 30 s.

[5] = BCS classification
[6] = tested on: mice; test: Chemically induced seizures in mice (pentylenetetrazol); format: in vivo; conditions: i.p. 30 min before seizure induction; higher ED50 values than audiogenic model
Method: The dose was selected based on dose-effect curves in saline-treated animals as the convulsive dose inducing clonic convulsions of all four extremities in 97% of the animals. Immediately after administration of the chemoconvulsant, the mice were placed individually in small plastic cages (25 13 8 cm) and observed for the presence of clonic convulsions in all four extremities, for 60 min. The occurrence of tonic convulsions (hindlimb extension) and mortality was also recorded during this interval.

[7] = tested on: GAERS rats; test: Spontaneous SWDs in GAERS rats; format: in vivo
[8] = tested on: mice; test: Corneal kindling of mice; format: in vivo
[9] = Water solubility of the active ingredient
[10] = tested on: mice; test: Maximal electroshock in mice; format: in vivo; conditions: i.p. 30 min before seizure induction; higher ED50 values than audiogenic model

Structure (SMILES)	effect on epileptiform responses induced by high-K+/low-Ca2+ and by bicuculline [1]	dose from which significant suppression in motor-seizure severity was induced [2] [mg/kg]	dose significantly reducing after-discharge duration [2] [mg/kg]	effect on rate of spontaneous field bursting [3]	effect on epileptiform responses (evoked PS1 amplitude, repetitive PSs) [3]	protection against clonic convulsions [4]	BCS class [5]	protection against clonic convulsions induced by pentylenetetrazol [6]	dose from which spontaneous SWDs were significantly suppressed [7] [mg/kg]	dose giving complete inhibition of spontaneous SWDs ([7]; highest dose tested) [mg/kg]	incidence of generalized motor seizures after termination of treatment ([8]; continued corneal stimulations, group previously treated with the highest dose)	incidence of generalized motor seizures ([8]; pretreatment during corneal kindling)	solubility [9] [mg/mL]	protection against tonic hindlimb extension induced by maximal electroshock [10]
CC[C@@H](C(N)=O)N1CCCC1=O [Levetiracetam]	reduces epileptiform responses	170	> 1700	not	reduced these epileptiform responses	protected against the expression of clonic convulsions								
CCC[C@@H]1CC(=O)N([C@@H](CC)C(N)=O)C1 [Brivaracetam, (2S)-2-[(4R)-2-oxo-4-propyl-pyrrolidin-1-yl]butanamide]		21.2	212.3	reduced the rate of this spontaneous bursting	reduced these epileptiform responses	protected against the expression of clonic convulsions	BCS I	protected against clonic convulsions	2.1	67.9	persistent reduction in the incidence of generalized motor seizures	significant reduction in the incidence of generalized motor seizures	~700 (≈ 3300 mM)	protected
